Usually pIC50 stands for −log10 of the IC50, conventionally taken in molar units.

pIC50: −log10 of the molar value. A value given as a limit tells only on which side of the number the result lay.

Experimental findings from patent publication US8614201B2 (Janssen Pharmaceutica NV, priority 2009, dated 2013) are described below.

Human TRPA1, sequence (O75762 whole entry): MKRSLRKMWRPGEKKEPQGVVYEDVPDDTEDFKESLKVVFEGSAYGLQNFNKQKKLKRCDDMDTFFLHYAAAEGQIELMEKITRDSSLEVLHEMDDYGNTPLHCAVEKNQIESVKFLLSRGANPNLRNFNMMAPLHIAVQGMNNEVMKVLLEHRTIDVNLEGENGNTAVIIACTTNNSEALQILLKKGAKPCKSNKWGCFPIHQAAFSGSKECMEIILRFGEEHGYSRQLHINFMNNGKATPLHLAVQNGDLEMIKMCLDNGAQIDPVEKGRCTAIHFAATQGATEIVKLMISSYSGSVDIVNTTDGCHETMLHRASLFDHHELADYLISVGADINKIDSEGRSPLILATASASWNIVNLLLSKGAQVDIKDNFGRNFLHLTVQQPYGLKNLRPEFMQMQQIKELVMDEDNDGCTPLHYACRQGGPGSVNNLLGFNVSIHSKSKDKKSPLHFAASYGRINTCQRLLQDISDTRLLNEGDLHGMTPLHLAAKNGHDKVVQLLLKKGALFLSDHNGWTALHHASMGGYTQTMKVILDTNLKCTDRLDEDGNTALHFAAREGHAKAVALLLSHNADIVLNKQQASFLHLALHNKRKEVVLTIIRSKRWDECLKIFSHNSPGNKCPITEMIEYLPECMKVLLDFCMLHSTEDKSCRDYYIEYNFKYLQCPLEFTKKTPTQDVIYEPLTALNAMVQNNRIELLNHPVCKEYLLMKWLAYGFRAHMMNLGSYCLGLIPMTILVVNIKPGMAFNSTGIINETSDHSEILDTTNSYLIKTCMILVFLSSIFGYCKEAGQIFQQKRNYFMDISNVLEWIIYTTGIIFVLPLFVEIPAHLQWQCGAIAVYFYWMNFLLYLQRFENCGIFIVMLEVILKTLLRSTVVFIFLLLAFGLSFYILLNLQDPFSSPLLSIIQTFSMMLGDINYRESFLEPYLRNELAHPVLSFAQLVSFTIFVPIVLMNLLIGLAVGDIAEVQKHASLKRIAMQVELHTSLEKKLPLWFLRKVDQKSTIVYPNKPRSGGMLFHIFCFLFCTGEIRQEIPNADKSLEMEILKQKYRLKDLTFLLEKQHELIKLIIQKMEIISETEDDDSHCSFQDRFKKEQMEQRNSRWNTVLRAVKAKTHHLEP

In this assay the target is Human TRPA1 (Homo sapiens, UniProt O75762). Kind of assay: Assay 1: In vitro cellular testing of TRPA1 modulation (CHO-TREx, Fluo-3 calcium fluorescence, AITC agonist). Particulars: CHO-TREx cells expressing human TRPA1; Fluo-3 fluorescence (FLIPR/Tetra); agonist 15 μM allyl isothiocyanate (AITC); 30 minute antagonist incubation. Further details: expressed in transfected cells; host or cells: CHO-TREx cells (Invitrogen), vector pcDNA4/TO. It counts as cell-based. The gist of the method:
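Tetracycline-induced CHO-TREx cells stably expressing human TRPA1, loaded with 4 μM Fluo-3 AM, preincubated 30 min with compound (serial dilution typically from 10 μM, three-fold steps) in HEPES saline pH 7.4. Fluorescence change over 3 min after 15 μM AITC; IC50 from Hill fit versus no-antagonist and 10 μM ruthenium red controls.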
In the case of `O=C(NCc1cc(NCc2cccnc2)nc(-c2ccc(C(F)(F)F)cc2)c1)[C@@H]1C=CCN1S(=O)(=O)c1ccc(Cl)s1` [Example 345, (2S)-1-[(5-Chlorothiophen-2-yl)sulfonyl]-N-({2-[(pyridin-3-ylmethyl)amino]-6-[4-(trifluoromethyl)phenyl]pyridin-4-yl}methyl)-2,5-dihydro-1H-pyrrole-2-carboxamide], the negative-log IC50 (pIC50) was 5.60. The figure for `O=C(NCc1cc(NCc2cccnc2)nc(-c2ccc(C(F)(F)F)cc2)c1)[C@@H]1C=CCN1S(=O)(=O)c1ccc(F)cc1` [Example 346, (2S)-1-[(4-Fluorophenyl)sulfonyl]-N-({2-[(pyridin-3-ylmethyl)amino]-6-[4-(trifluoromethyl)phenyl]pyridin-4-yl}methyl)-2,5-dihydro-1H-pyrrole-2-carboxamide] is under 5.00; for `O=C(NCc1cc(NCc2ccccn2)nc(-c2ccc(C(F)(F)F)cc2)c1)[C@@H]1CCCN1S(=O)(=O)c1ccc(Cl)s1` [Example 347, 1-[(5-Chlorothiophen-2-yl)sulfonyl]-N-({2-[(pyridin-2-ylmethyl)amino]-6-[4-(trifluoromethyl)phenyl]pyridin-4-yl}methyl)-L-prolinamide] it is 6.29; for `O=C(NCc1cc(-c2ccc(C(F)(F)F)cc2)nc(N2CCN(Cc3ccccn3)CC2)c1)[C@@H]1CCCN1S(=O)(=O)c1ccc(F)cc1` [Example 348, 1-[(4-Fluorophenyl)sulfonyl]-N-({2-[4-(pyridin-2-ylmethyl)piperazin-1-yl]-6-[4-(trifluoromethyl)phenyl]pyridin-4-yl}methyl)-L-prolinamide] it is 5.79.

Take `CC(Nc1cc(CNC(=O)[C@@H]2CCCN2S(=O)(=O)c2ccc(F)cc2)cc(-c2ccc(C(F)(F)F)cc2)n1)c1cccnc1` (stereo partly drawn) [Example 349, 1-[(4-Fluorophenyl)sulfonyl]-N-({2-[(1-pyridin-3-ylethyl)amino]-6-[4-(trifluoromethyl)phenyl]pyridin-4-yl}methyl)-L-prolinamide]: the pIC50 is 5.77. Under `CC(Nc1cc(CNC(=O)[C@@H]2C=CCN2S(=O)(=O)c2ccc(F)cc2)cc(-c2ccc(C(F)(F)F)cc2)n1)c1cccnc1` (stereo partly drawn) [Example 350, (2S)-1-[(4-Fluorophenyl)sulfonyl]-N-({2-[(1-pyridin-3-ylethyl)amino]-6-[4-(trifluoromethyl)phenyl]pyridin-4-yl}methyl)-2,5-dihydro-1H-pyrrole-2-carboxamide] stands 5.14. As to `CC(Nc1cc(CNC(=O)[C@@H]2C=CCN2S(=O)(=O)c2ccc(Cl)s2)cc(-c2ccc(C(F)(F)F)cc2)n1)c1cccnc1` (stereo partly drawn) [Example 351, (2S)-1-[(5-Chlorothiophen-2-yl)sulfonyl]-N-({2-[(1-pyridin-3-ylethyl)amino]-6-[4-(trifluoromethyl)phenyl]pyridin-4-yl}methyl)-2,5-dihydro-1H-pyrrole-2-carboxamide], the pIC50 is under 5.00. As to `O=C(NCc1cc(NCc2ccccc2)nc(-c2ccc(C(F)(F)F)cc2)c1)[C@@H]1CC(F)(F)CN1S(=O)(=O)c1ccc(Cl)s1` [Example 352, N-({2-(Benzylamino)-6-[4-(trifluoromethyl)phenyl]pyridin-4-yl}methyl)-1-[(5-chlorothiophen-2-yl)sulfonyl]-4,4-difluoro-L-prolinamide], the pIC50 is 5.15. With `O=C(NCc1cc(-c2ccc(C(F)(F)F)cc2)nc(N2CCN(Cc3ccccn3)CC2)c1)[C@@H]1C=CCN1S(=O)(=O)c1ccc(F)cc1` [Example 353, (2S)-1-[(4-Fluorophenyl)sulfonyl]-N-({2-[4-(pyridin-2-ylmethyl)piperazin-1-yl]-6-[4-(trifluoromethyl)phenyl]pyridin-4-yl}methyl)-2,5-dihydro-1H-pyrrole-2-carboxamide], the pIC50 is 5.56. Under `O=C(NCc1cc(-c2ccc(C(F)(F)F)cc2)nc(N2CCN(Cc3ccccn3)CC2)c1)[C@@H]1C=CCN1S(=O)(=O)c1ccc(Cl)s1` [Example 354, (2S)-1-[(5-Chlorothiophen-2-yl)sulfonyl]-N-({2-[4-(pyridin-2-ylmethyl)piperazin-1-yl]-6-[4-(trifluoromethyl)phenyl]pyridin-4-yl}methyl)-2,5-dihydro-1H-pyrrole-2-carboxamide] stands 5.97; under `O=C(NCc1cc(-c2ccc(C(F)(F)F)cc2)nc(N2CCN(Cc3cccnc3)CC2)c1)[C@@H]1C=CCN1S(=O)(=O)c1ccc(Cl)s1` [Example 355, (2S)-1-[(5-Chlorothiophen-2-yl)sulfonyl]-N-({2-[4-(pyridin-3-ylmethyl)piperazin-1-yl]-6-[4-(trifluoromethyl)phenyl]pyridin-4-yl}methyl)-2,5-dihydro-1H-pyrrole-2-carboxamide], 6.05; under `O=C(NCc1cc(-c2ccc(C(F)(F)F)cc2)nc(N2CCN(Cc3ccncc3)CC2)c1)[C@@H]1CC(F)(F)CN1S(=O)(=O)c1ccc(F)cc1` [Example 356, 4,4-Difluoro-1-[(4-fluorophenyl)sulfonyl]-N-({2-[4-(pyridin-4-ylmethyl)piperazin-1-yl]-6-[4-(trifluoromethyl)phenyl]pyridin-4-yl}methyl)-L-prolinamide], under 5.00.

As for `O=C(NCc1cc(-c2ccc(C(F)(F)F)cc2)nc(N2CCN(c3ccccc3F)CC2)c1)[C@@H]1CC(F)(F)CN1S(=O)(=O)c1ccc(F)cc1` [Example 357, 4,4-Difluoro-N-({2-[4-(2-fluorophenyl)piperazin-1-yl]-6-[4-(trifluoromethyl)phenyl]pyridin-4-yl}methyl)-1-[(4-fluorophenyl)sulfonyl]-L-prolinamide], the negative-log IC50 (pIC50) is under 5.00. Under `O=C(NCc1cc(-c2ccc(C(F)(F)F)cc2)nc(N2CCN(c3ccccc3F)CC2)c1)[C@@H]1CC(F)(F)CN1S(=O)(=O)c1ccc(Cl)s1` [Example 358, 1-[(5-Chlorothiophen-2-yl)sulfonyl]-4,4-difluoro-N-({2-[4-(2-fluorophenyl)piperazin-1-yl]-6-[4-(trifluoromethyl)phenyl]pyridin-4-yl}methyl)-L-prolinamide] stands under 5.00. Regarding `O=C(NCc1cc(-c2ccc(C(F)(F)F)cc2)nc(N2CCN(c3ccccc3F)CC2)c1)[C@@H]1C=CCN1S(=O)(=O)c1ccc(Cl)s1` [Example 359, (2S)-1-[(5-Chlorothiophen-2-yl)sulfonyl]-N-({2-[4-(2-fluorophenyl)piperazin-1-yl]-6-[4-(trifluoromethyl)phenyl]pyridin-4-yl}methyl)-2,5-dihydro-1H-pyrrole-2-carboxamide], the pIC50 is 5.92. Turning to `CNc1cc(CNC(=O)[C@@H]2CC(F)(F)CN2S(=O)(=O)c2ccc(F)cc2)cc(-c2ccc(C(F)(F)F)cc2)n1` [Example 360, 4,4-Difluoro-1-[(4-fluorophenyl)sulfonyl]-N-({2-(methylamino)-6-[4-(trifluoromethyl)phenyl]pyridin-4-yl}methyl)-L-prolinamide], the pIC50 is 5.64. In the case of `O=C(NCc1cc(-c2ccc(C(F)(F)F)cc2)nc(N2CCN(Cc3ccccc3)CC2)c1)[C@@H]1C=CCN1S(=O)(=O)c1ccc(F)cc1` [Example 361, (2S)—N-({2-(4-Benzylpiperazin-1-yl)-6-[4-(trifluoromethyl)phenyl]pyridin-4-yl}methyl)-1-[(4-fluorophenyl)sulfonyl]-2,5-dihydro-1H-pyrrole-2-carboxamide], the negative-log IC50 (pIC50) is 6.34.
